# Laboratory results from PubChem BioAssay AID330 (DTP/NCI, 2004).
# Values joined by “and” are separate entries in the source; they are usually repeats but may differ in a detail not shown here. Equal entries are not always repeated. Toxic doses and inconclusive results are not listed.
# Test system: P388 leukemia ip, CD2F1 mice, survival T/C
# Assay: NCI In Vivo Anticancer Drug Screen. Data for tumor model P388 Leukemia (intraperitoneal) in CD2F1 (CDF1) mice
# Conditions: endpoint: median survival time, higher = longer survival
# Procedure, shortened: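 Mice carrying the transplanted tumor received test compound or vehicle. Survival was recorded in each group, and the value is the treated-group measurement divided by that of the vehicle-treated control group.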
# [1] = dose: 100.0 mg/kg/injection, schedule: Q01DX009 (ip), vehicle: saline with Tween-80
# [2] = dose: 200.0 mg/kg/injection, schedule: Q01DX009 (ip), vehicle: saline with Tween-80
# [3] = dose: 60.0 mg/kg/injection, schedule: Q01DX005 (ip), vehicle: saline with Tween-80
# [4] = dose: 50.0 mg/kg/injection, schedule: Q01DX005 (ip), vehicle: saline with Tween-80
# [5] = dose: 100.0 mg/kg/injection, schedule: Q01DX005 (ip), vehicle: saline with Tween-80
# [6] = dose: 25.0 mg/kg/injection, schedule: Q01DX009 (ip), vehicle: other
# [7] = dose: 50.0 mg/kg/injection, schedule: Q01DX009 (ip), vehicle: other
# [8] = dose: 12.5 mg/kg/injection, schedule: Q01DX009 (ip), vehicle: saline with Tween-80
# [9] = dose: 25.0 mg/kg/injection, schedule: Q01DX009 (ip), vehicle: saline with Tween-80
# [10] = dose: 50.0 mg/kg/injection, schedule: Q01DX009 (ip), vehicle: saline with Tween-80
# [11] = dose: 50.0 mg/kg/injection, schedule: Q01DX009 (ip), vehicle: Klucel (hydroxypropylcellulose) (HPC)
# [12] = dose: 200.0 mg/kg/injection, schedule: Q01DX009 (ip), vehicle: Klucel (hydroxypropylcellulose) (HPC)
# [13] = dose: 100.0 mg/kg/injection, schedule: Q01DX009 (ip), vehicle: Klucel (hydroxypropylcellulose) (HPC)
structure (smiles),measurement,setting,value
O=c1cnn(C2OC(CO)C(O)C2Cl)c(=O)[nH]1 (centres undefined),T/C,"dose: 4.06 mg/kg/injection, schedule: Q01DX009 (ip), vehicle: saline",99 % of control
same,T/C,"dose: 8.12 mg/kg/injection, schedule: Q01DX009 (ip), vehicle: saline",108 % of control
same,T/C,"dose: 16.25 mg/kg/injection, schedule: Q01DX009 (ip), vehicle: saline",101 % of control
same,T/C,"dose: 32.5 mg/kg/injection, schedule: Q01DX009 (ip), vehicle: saline",101 % of control
same,T/C,"dose: 65.0 mg/kg/injection, schedule: Q01DX009 (ip), vehicle: saline",106 % of control
same,T/C,"dose: 130.0 mg/kg/injection, schedule: Q01DX009 (ip), vehicle: saline",102 % of control
O=c1[nH]cnc2cc(NCc3ccccc3)c([N+](=O)[O-])cc12,T/C,"dose: 100.0 mg/kg/injection, schedule: Q04DX003 (ip), vehicle: Klucel (hydroxypropylcellulose) (HPC)",100 % of control
same,T/C,"dose: 200.0 mg/kg/injection, schedule: Q04DX003 (ip), vehicle: Klucel (hydroxypropylcellulose) (HPC)",96 % of control
same,T/C,"dose: 400.0 mg/kg/injection, schedule: Q04DX003 (ip), vehicle: Klucel (hydroxypropylcellulose) (HPC)",94 % of control
COc1cc2c(cc1OC(C)=O)C(=O)C(Br)CCC2 (centres undefined),T/C,[1],89 % of control
same,T/C,[2],86 % of control
CCN(CC)CCCCCNc1cc(Cl)c(Cl)cc1[N+](=O)[O-],T/C,"dose: 12.5 mg/kg/injection, schedule: Q01DX009 (ip), vehicle: saline",99 % of control
same,T/C,"dose: 25.0 mg/kg/injection, schedule: Q01DX009 (ip), vehicle: saline",95 % of control
same,T/C,"dose: 50.0 mg/kg/injection, schedule: Q01DX009 (ip), vehicle: saline",107 % of control
COC(=O)C1=NC(=N)N=C(C(=O)OC)C12C(=O)Cc1ccccc12 (centres undefined),T/C,[3],103 % of control
same,T/C,"dose: 120.0 mg/kg/injection, schedule: Q01DX005 (ip), vehicle: saline with Tween-80",100 % of control
N#CCc1ccc(C(C#N)C(=O)CCC(=O)C(C#N)c2ccc(CC#N)cc2)cc1 (centres undefined),T/C,[4],100 % of control
same,T/C,[5],100 % of control
C=C(CCCCC)C(=O)/C=C/c1ccc(Cl)c(Cl)c1,T/C,"dose: 6.25 mg/kg/injection, schedule: Q01DX009 (ip), vehicle: other",97 % of control
same,T/C,"dose: 12.5 mg/kg/injection, schedule: Q01DX009 (ip), vehicle: other",107 % of control
same,T/C,[6],108 % of control
same,T/C,[7],109 % of control
[Br][Sn]([Br])([S]c1ccccn1)[S]c1ccccn1,T/C,[8],111 % of control
same,T/C,[9],103 % of control
same,T/C,[10],100 % of control and 95 % of control
same,T/C,[2],89 % of control
CC1(C)CC2(C)OC(=O)c3ccccc3N2C(=S)N1 (centres undefined),T/C,"dose: 15.0 mg/kg/injection, schedule: Q01DX005 (ip), vehicle: saline with Tween-80",94 % of control
same,T/C,"dose: 30.0 mg/kg/injection, schedule: Q01DX005 (ip), vehicle: saline with Tween-80",95 % of control
same,T/C,[3],90 % of control and 96 % of control
C(=C/c1cc2ccc(C3=NCCN3)cc2o1)/c1cc2cc(C3=NCCN3)ccc2[nH]1,T/C,"dose: 200.0 mg/kg/injection, schedule: Q04DX003 (ip), vehicle: suspension in saline",113 % of control
O=C(Nc1nnc(C(F)(F)F)s1)c1c(F)cccc1F,T/C,[8],104 % of control
same,T/C,[9],104 % of control
same,T/C,[10],99 % of control
COC1OCN(C2CCCCC2)CC1(C)C (centres undefined),T/C,"dose: 17.5 mg/kg/injection, schedule: Q01DX009 (ip), vehicle: saline with Tween-80",100 % of control
same,T/C,"dose: 35.0 mg/kg/injection, schedule: Q01DX009 (ip), vehicle: saline with Tween-80",104 % of control
same,T/C,"dose: 70.0 mg/kg/injection, schedule: Q01DX009 (ip), vehicle: saline with Tween-80",117 % of control
COC(CNC(=O)COc1ccccc1OCC(=O)NCC(OC)OC)OC,T/C,"dose: 50.0 mg/kg/injection, schedule: Q01DX005 (ip), vehicle: saline",99 % of control
same,T/C,"dose: 100.0 mg/kg/injection, schedule: Q01DX005 (ip), vehicle: saline",102 % of control
same,T/C,"dose: 200.0 mg/kg/injection, schedule: Q01DX005 (ip), vehicle: saline",102 % of control
COc1cccc2c1C(=O)c1c(O)c3c(c(O)c1C2=O)C[C@@](O)(C(=O)CO)C[C@@H]3OC1CC(NC(C)=O)C(O)C(C)O1 (some centres undefined),T/C,"dose: 0.2 mg/kg/injection, schedule: Q01DX009 (ip), vehicle: water",96 % of control
same,T/C,"dose: 0.39 mg/kg/injection, schedule: Q01DX009 (ip), vehicle: water",107 % of control
same,T/C,"dose: 0.78 mg/kg/injection, schedule: Q01DX009 (ip), vehicle: water",116 % of control
same,T/C,"dose: 1.56 mg/kg/injection, schedule: Q01DX009 (ip), vehicle: water",122 % of control
same,T/C,"dose: 3.13 mg/kg/injection, schedule: Q01DX009 (ip), vehicle: water",120 % of control
same,T/C,[6],156 % of control
same,T/C,[7],195 % of control
same,T/C,"dose: 50.0 mg/kg/injection, schedule: Q01DX009 (ip), vehicle: water",172 % of control
same,T/C,"dose: 100.0 mg/kg/injection, schedule: Q01DX009 (ip), vehicle: other",201 % of control
same,T/C,"dose: 200.0 mg/kg/injection, schedule: Q01DX009 (ip), vehicle: other",192 % of control
CN1CCN(C)B1N=S(C)(C)=O,T/C,"dose: 50.0 mg/kg/injection, schedule: Q01DX005 (ip), vehicle: olive oil, sesame oil, peanut oil",111 % of control
same,T/C,"dose: 100.0 mg/kg/injection, schedule: Q01DX005 (ip), vehicle: olive oil, sesame oil, peanut oil",114 % of control
O=C1CC2COc3ccc(OCCN4CCCC4)cc3C2=NN1c1ccccc1 (centres undefined),T/C,[4],103 % of control
same,T/C,[5],103 % of control
CC(O)C(NC(=O)c1ccccc1)C(=O)O (centres undefined),T/C,[10],99 % of control
same,T/C,[1],95 % of control
same,T/C,[2],91 % of control
CC(C)(C)N=C(CCN1CCN(CCC(=NC(C)(C)C)Nc2ccc([N+](=O)[O-])cc2)CC1)Nc1ccc([N+](=O)[O-])cc1,T/C,[8],92 % of control
same,T/C,[9],96 % of control
same,T/C,[11],87 % of control
same,T/C,[10],91 % of control
same,T/C,[12],93 % of control
C=CCn1c(Br)nc2c1c(=O)n(CC)c(=O)n2CC,T/C,"dose: 16.0 mg/kg/injection, schedule: Q01DX009 (ip), vehicle: Klucel (hydroxypropylcellulose) (HPC)",107 % of control
same,T/C,"dose: 32.0 mg/kg/injection, schedule: Q01DX009 (ip), vehicle: Klucel (hydroxypropylcellulose) (HPC)",107 % of control
same,T/C,[11],89 % of control
same,T/C,"dose: 64.0 mg/kg/injection, schedule: Q01DX009 (ip), vehicle: Klucel (hydroxypropylcellulose) (HPC)",93 % of control
same,T/C,[13],91 % of control
same,T/C,[12],94 % of control
CSCCC(NP(=S)(c1ccccc1)c1ccccc1)C(=O)O (centres undefined),T/C,[11],104 % of control and 107 % of control
same,T/C,[13],107 % of control
same,T/C,[12],101 % of control and 94 % of control
CC(C)(C)N1C(=O)[N+]2(CCCCC2)N=C1[O-],T/C,"dose: 100.0 mg/kg/injection, schedule: Q04DX003 (ip), vehicle: saline with Tween-80",93 % of control
same,T/C,"dose: 200.0 mg/kg/injection, schedule: Q04DX003 (ip), vehicle: saline with Tween-80",99 % of control
same,T/C,"dose: 400.0 mg/kg/injection, schedule: Q04DX003 (ip), vehicle: saline with Tween-80",86 % of control
CCP(c1ccccc1)c1ccccc1,T/C,"dose: 100.0 mg/kg/injection, schedule: Q01DX001 (ip), vehicle: Klucel (hydroxypropylcellulose) (HPC)",100 % of control
same,T/C,"dose: 100.0 mg/kg/injection, schedule: Q01DX001 (ip), vehicle: saline",107 % of control
same,T/C,"dose: 200.0 mg/kg/injection, schedule: Q01DX001 (ip), vehicle: Klucel (hydroxypropylcellulose) (HPC)",98 % of control
same,T/C,"dose: 200.0 mg/kg/injection, schedule: Q01DX001 (ip), vehicle: saline",96 % of control
same,T/C,"dose: 400.0 mg/kg/injection, schedule: Q01DX001 (ip), vehicle: Klucel (hydroxypropylcellulose) (HPC)",103 % of control
same,T/C,"dose: 400.0 mg/kg/injection, schedule: Q01DX001 (ip), vehicle: saline",96 % of control
same,T/C,"dose: 600.0 mg/kg/injection, schedule: Q01DX001 (ip), vehicle: Klucel (hydroxypropylcellulose) (HPC)",102 % of control
CCN(CC)C(=S)SC(=S)N(CC)CC,T/C,[1],108 % of control
same,T/C,[2],104 % of control
same,T/C,"dose: 400.0 mg/kg/injection, schedule: Q01DX009 (ip), vehicle: saline with Tween-80",103 % of control
c1ccc(C2c3ccccc3Nc3ccccc32)cc1,T/C,"dose: 6.25 mg/kg/injection, schedule: Q04DX002 (ip), vehicle: saline with Tween-80",104 % of control
same,T/C,"dose: 12.5 mg/kg/injection, schedule: Q04DX002 (ip), vehicle: saline with Tween-80",97 % of control
same,T/C,"dose: 25.0 mg/kg/injection, schedule: Q04DX002 (ip), vehicle: saline with Tween-80",97 % of control
COc1ccc2c(c1)C1(C)CCN(C)CC(C1)C2O (centres undefined),T/C,[10],96 % of control and 104 % of control
same,T/C,[1],91 % of control and 87 % of control
same,T/C,[2],117 % of control
